Experimental data from PubChem BioAssay AID1745844 (Carcinogenic Potency Database (CPDB), 2022).
Values joined by “and” are separate entries in the source; they are usually repeats but may differ in a detail not shown here. Identical values can stand only once. Active and inactive are the calls of the source. How the calls were made is not given here.

Test system: rodent lifetime carcinogenesis bioassay, tumor incidence TD50
Assay: carcinogenic potency in animals, long-term in vivo studies, CPDB compilation (AID 1745844)
[1] = mouse, strain A/He, females, in feed, site: liver, lesion: hepatoma, dosed 104 weeks, study length 104 weeks
[2] = mouse, strain A/He, females, in feed, site: lung, lesion: one or several types, types not named, dosed 104 weeks, study length 104 weeks
[3] = mouse, strain C3HfB, females, in feed, site: lung, lesion: one or several types, types not named, dosed 104 weeks, study length 104 weeks
[4] = mouse, strain CFLP, females, in feed, site: liver, lesion: hepatocellular tumor, dosed 78 weeks, study length 78 weeks

With `CC(CO)OC(C)CO` (centres undefined) (tested in a mixture with another compound) the carcinogen call (mouse, strain B6C3F1, females, in drinking water, site: any site (literature study), lesion: several types, types named in the paper, dosed 104 weeks, study length 104 weeks) was “negative (inactive)”, the TD50 (mouse, strain B6C3F1, females, in drinking water, site: lung, lesion: alveolar/bronchiolar adenoma + alveolar/bronchiolar carcinoma, dosed 104 weeks, study length 104 weeks) was 31800 mg/kg/day and the TD50 (mouse, strain B6C3F1, males, in drinking water, site: any site (literature study), lesion: several types, types named in the paper, dosed 104 weeks, study length 104 weeks) was 24500 mg/kg/day (inactive). The TD50 (mouse, strain B6C3F1, males, in drinking water, site: lung, lesion: alveolar/bronchiolar adenoma + alveolar/bronchiolar carcinoma, dosed 104 weeks, study length 104 weeks) was 18100 mg/kg/day, the carcinogen call (rat, strain Fischer 344, females, in drinking water, site: any site (literature study), lesion: several types, types named in the paper, dosed 104 weeks, study length 104 weeks) was “negative (inactive)” and the TD50 (rat, strain Fischer 344, males, in drinking water, site: any site (literature study), lesion: several types, types named in the paper, dosed 104 weeks, study length 102 weeks) was 274 mg/kg/day (inactive). The TD50 (rat, strain Fischer 344, males, in drinking water, site: liver, lesion: hepatocellular adenoma + hepatoblastoma + hepatocellular carcinoma, dosed 104 weeks, study length 102 weeks) was 68200 mg/kg/day.

`CC(F)(Cl)Cl` was tested, and the TD50 (rat, strain Sprague-Dawley, males, inhaled, site: any site (literature study), lesion: several types, types named in the paper, dosed 105 weeks, study length 105 weeks) was 5790 mg/kg/day and the TD50 (rat, strain Sprague-Dawley, males, inhaled, site: testis, lesion: interstitial-cell adenoma, dosed 105 weeks, study length 105 weeks) was 5260 mg/kg/day.

`CCN(CC)C(=S)SSC(=S)N(CC)CC` showed a TD50 (mouse, strain B6AKF1, females, oral dosing, site: any site (literature study), lesion: several types, types named in the paper, dosed 76 weeks, study length 76 weeks) of 1940 mg/kg/day, a TD50 (mouse, strain B6AKF1, females, oral dosing, site: lung, lesion: adenoma, dosed 76 weeks, study length 76 weeks) of 4140 mg/kg/day and a TD50 (mouse, strain B6AKF1, males, oral dosing, site: any site (literature study), lesion: several types, types named in the paper, dosed 76 weeks, study length 76 weeks) of 10.1 mg/kg/day. For the same molecule, the TD50 (mouse, strain B6AKF1, males, oral dosing, site: liver, lesion: hepatoma, dosed 76 weeks, study length 76 weeks) was 197 mg/kg/day, the TD50 (mouse, strain B6AKF1, males, oral dosing, site: subcutaneous tissue, lesion: fibrosarcoma, dosed 76 weeks, study length 76 weeks) was 15.4 mg/kg/day and the carcinogen call (mouse, strain B6C3F1, females, in feed, site: any site (literature study), lesion: several types, types named in the paper, dosed 108 weeks, study length 108 weeks) was “negative (inactive)”. It also gave a TD50 (mouse, strain B6C3F1, females, in feed, site: liver, lesion: hepatocellular adenoma + hepatocellular carcinoma + neoplastic nodule, dosed 108 weeks, study length 108 weeks) of 120 mg/kg/day, a TD50 (mouse, strain B6C3F1, females, in feed, site: lung, lesion: alveolar/bronchiolar adenoma + alveolar/bronchiolar carcinoma, dosed 108 weeks, study length 108 weeks) of 323 mg/kg/day and a TD50 (mouse, strain B6C3F1, females, oral dosing, site: any site (literature study), lesion: several types, types named in the paper, dosed 76 weeks, study length 76 weeks) of 64.5 mg/kg/day. For the same molecule, the TD50 (mouse, strain B6C3F1, females, oral dosing, site: liver, lesion: hepatoma, dosed 76 weeks, study length 76 weeks) was 283 mg/kg/day, the TD50 (mouse, strain B6C3F1, females, oral dosing, site: lung, lesion: adenoma, dosed 76 weeks, study length 76 weeks) was 283 mg/kg/day and the TD50 (mouse, strain B6C3F1, females, oral dosing, site: lung, lesion: carcinoma, dosed 76 weeks, study length 76 weeks) was 283 mg/kg/day. For the same molecule, the TD50 (mouse, strain B6C3F1, females, oral dosing, site: lung, lesion: several types, types named in the paper, dosed 76 weeks, study length 76 weeks) was 138 mg/kg/day, the carcinogen call (mouse, strain B6C3F1, males, in feed, site: any site (literature study), lesion: several types, types named in the paper, dosed 108 weeks, study length 108 weeks) was “negative (inactive)” and the TD50 (mouse, strain B6C3F1, males, oral dosing, site: any site (literature study), lesion: several types, types named in the paper, dosed 76 weeks, study length 76 weeks) was 17 mg/kg/day. The TD50 (mouse, strain B6C3F1, males, oral dosing, site: liver, lesion: hepatoma, dosed 76 weeks, study length 76 weeks) was 23.7 mg/kg/day, the TD50 (mouse, strain B6C3F1, males, oral dosing, site: lung, lesion: adenoma, dosed 76 weeks, study length 76 weeks) was 43.2 mg/kg/day and the carcinogen call (rat, strain Charles River CD (Sprague-Dawley), females, in feed, site: any site (literature study), lesion: one or several types, types not named, dosed 104 weeks, study length 104 weeks) was “negative (inactive)”. The TD50 (rat, strain Charles River CD (Sprague-Dawley), females, in feed, site: any site (literature study), lesion: several types, types named in the paper, dosed 78 weeks, study length 78 weeks) was 193 mg/kg/day, the TD50 (rat, strain Charles River CD (Sprague-Dawley), females, in feed, site: liver, lesion: neoplastic nodule, dosed 104 weeks, study length 104 weeks) was 41100 mg/kg/day (inactive) and the TD50 (rat, strain Charles River CD (Sprague-Dawley), females, in feed, site: mammary gland, lesion: several types, types named in the paper, dosed 78 weeks, study length 78 weeks) was 68.9 mg/kg/day. The carcinogen call (rat, strain Charles River CD (Sprague-Dawley), males, in feed, site: any site (literature study), lesion: one or several types, types not named, dosed 104 weeks, study length 104 weeks) was “negative (inactive)”, the carcinogen call (rat, strain Charles River CD (Sprague-Dawley), males, in feed, site: liver, lesion: hepatocellular carcinoma, dosed 104 weeks, study length 104 weeks) was “negative (inactive)” and the TD50 (rat, strain Charles River CD (Sprague-Dawley), males, in feed, site: liver, lesion: hepatocellular tumor, dosed 78 weeks, study length 78 weeks) was 366 mg/kg/day. For the same molecule, the TD50 (rat, strain Charles River CD (Sprague-Dawley), males, in feed, site: liver, lesion: neoplastic nodule, dosed 104 weeks, study length 104 weeks) was 678 mg/kg/day (inactive), the carcinogen call (rat, strain Fischer 344, females, in feed, site: any site (literature study), lesion: several types, types named in the paper, dosed 107 weeks, study length 107 weeks) was “negative (inactive)” and the TD50 (rat, strain Fischer 344, females, in feed, site: liver, lesion: hepatocellular adenoma + hepatocellular carcinoma + neoplastic nodule, dosed 107 weeks, study length 107 weeks) was 1430 mg/kg/day. The carcinogen call (rat, strain Fischer 344, males, in feed, site: any site (literature study), lesion: several types, types named in the paper, dosed 107 weeks, study length 107 weeks) was “negative (inactive)”.

With `C#C[C@]1(O)CC[C@H]2[C@@H]3CCc4cc(OC)ccc4[C@H]3CC[C@@]21C` (tested in a mixture with another compound) the TD50 [1] was 25.2 mg/kg/day (inactive), the carcinogen call [1] was “negative (inactive)” and the TD50 [2] was 4.62 mg/kg/day (inactive) and 4.31 mg/kg/day (inactive). For the same molecule, the carcinogen call [2] was “negative (inactive)”, the TD50 (mouse, strain BALB/c, females, in feed, site: several sites, sites named in the paper, lesion: squamous-cell carcinoma, dosed 86 weeks, study length 86 weeks) was 2 mg/kg/day and the carcinogen call (mouse, strain BALB/cHe, females, in feed, site: lung, lesion: one or several types, types not named, dosed 104 weeks, study length 104 weeks) was “negative (inactive)”. The carcinogen call (mouse, strain C3H/He (MTV+), females, in feed, site: liver, lesion: hepatoma, dosed 104 weeks, study length 104 weeks) was “negative (inactive)”, the TD50 (mouse, strain C3HfB, females, in feed, site: all sites, lesion: fibrosarcoma, dosed 104 weeks, study length 104 weeks) was 3.93 mg/kg/day (inactive) and the carcinogen call (mouse, strain C3HfB, females, in feed, site: liver, lesion: hepatoma, dosed 104 weeks, study length 104 weeks) was “negative (inactive)”. For the same molecule, the TD50 [3] was 27.6 mg/kg/day (inactive), the carcinogen call [3] was “negative (inactive)” and the TD50 (mouse, strain C57BL/He, females, in feed, site: hypophysis, lesion: chromophobe adenoma, dosed 104 weeks, study length 104 weeks) was 1.75 mg/kg/day and 1.82 mg/kg/day. The carcinogen call (mouse, strain C57BL/He, females, in feed, site: liver, lesion: hepatoma, dosed 104 weeks, study length 104 weeks) was “negative (inactive)”, the TD50 (mouse, strain C57BL/He, females, in feed, site: lung, lesion: one or several types, types not named, dosed 104 weeks, study length 104 weeks) was 20.7 mg/kg/day (inactive) and the carcinogen call (mouse, strain C57L/He x 129/Rr x C3HeB/De x SWR/Ly, females, by gavage, site: any site (literature study), lesion: several types, types named in the paper, dosed 69 weeks, study length 69 weeks) was “negative (inactive)”. For the same molecule, the TD50 (mouse, strain C57L/He x 129/Rr x C3HeB/De x SWR/Ly, females, by gavage, site: any site (literature study), lesion: several types, types named in the paper, dosed 69 weeks, study length 82 weeks) was 0.332 mg/kg/day (inactive), the carcinogen call (mouse, strain C57L/He x 129/Rr x C3HeB/De x SWR/Ly, females, by gavage, site: lung, lesion: one or several types, types not named, dosed 69 weeks, study length 69 weeks) was “negative (inactive)” and the TD50 (mouse, strain C57L, females, by gavage, site: pituitary gland, lesion: one or several types, types not named, dosed 89 weeks, study length 89 weeks) was 0.151 mg/kg/day. For the same molecule, the TD50 [4] was 143 mg/kg/day (inactive), the carcinogen call [4] was “negative (inactive)” and the carcinogen call (mouse, strain CFLP, males, in feed, site: liver, lesion: hepatocellular tumor, dosed 78 weeks, study length 78 weeks) was “negative (inactive)”. For the same molecule, the TD50 (mouse, strain Swiss Webster, females, by gavage, site: liver, lesion: hepatocellular tumor, dosed 65 weeks, study length 80 weeks) was 20.8 mg/kg/day (inactive).

In the case of `CC(COc1ccccc1)N(CCCl)Cc1ccccc1` (centres undefined), the TD50 (mouse, strain B6C3F1, females, i.p., site: abdominal cavity, lesion: sarcoma, NOS, dosed 52 weeks, study length 84 weeks) was 5.85 mg/kg/day, the TD50 (mouse, strain B6C3F1, females, i.p., site: any site (literature study), lesion: several types, types named in the paper, dosed 52 weeks, study length 84 weeks) was 3.08 mg/kg/day and the TD50 (mouse, strain B6C3F1, males, i.p., site: abdominal cavity, lesion: sarcoma, NOS, dosed 51 weeks, study length 83 weeks) was 4.95 mg/kg/day. For the same molecule, the TD50 (mouse, strain B6C3F1, males, i.p., site: any site (literature study), lesion: several types, types named in the paper, dosed 51 weeks, study length 83 weeks) was 2.17 mg/kg/day, the TD50 (mouse, strain B6C3F1, males, i.p., site: liver, lesion: hepatocellular adenoma + hepatocellular carcinoma + neoplastic nodule, dosed 51 weeks, study length 83 weeks) was 5.84 mg/kg/day and the TD50 (mouse, strain B6C3F1, males, i.p., site: lung, lesion: alveolar/bronchiolar adenoma + alveolar/bronchiolar carcinoma, dosed 51 weeks, study length 83 weeks) was 63 mg/kg/day. The TD50 (rat, strain Sprague-Dawley, females, i.p., site: any site (literature study), lesion: several types, types named in the paper, dosed 52 weeks, study length 83 weeks) was 1.34 mg/kg/day, the TD50 (rat, strain Sprague-Dawley, females, i.p., site: peritoneum, lesion: sarcoma, NOS, dosed 52 weeks, study length 83 weeks) was 2.36 mg/kg/day and the TD50 (rat, strain Sprague-Dawley, males, i.p., site: any site (literature study), lesion: several types, types named in the paper, dosed 52 weeks, study length 83 weeks) was 0.555 mg/kg/day. For the same molecule, the TD50 (rat, strain Sprague-Dawley, males, i.p., site: peritoneum, lesion: sarcoma, NOS, dosed 52 weeks, study length 83 weeks) was 0.71 mg/kg/day.

With `Cc1ccc(S(=O)(=O)NC(=O)NN2CCCCCC2)cc1` the carcinogen call (mouse, strain B6C3F1, females, in feed, site: any site (literature study), lesion: several types, types named in the paper, dosed 103 weeks, study length 104 weeks) was “negative (inactive)”, the carcinogen call (mouse, strain B6C3F1, males, in feed, site: any site (literature study), lesion: several types, types named in the paper, dosed 103 weeks, study length 104 weeks) was “negative (inactive)” and the TD50 (mouse, strain B6C3F1, males, in feed, site: lung, lesion: alveolar/bronchiolar adenoma + alveolar/bronchiolar carcinoma, dosed 103 weeks, study length 104 weeks) was 24600 mg/kg/day. The carcinogen call (rat, strain Fischer 344, females, in feed, site: any site (literature study), lesion: several types, types named in the paper, dosed 103 weeks, study length 105 weeks) was “negative (inactive)” and the carcinogen call (rat, strain Fischer 344, males, in feed, site: any site (literature study), lesion: several types, types named in the paper, dosed 103 weeks, study length 104 weeks) was “negative (inactive)”.
